# Data published in ChEMBL document CHEMBL4340519, “The effects of Arctigenin-Valine ester on chemotherapy-induced myelosuppression in mice” (Bioorg Med Chem, 2019).
# Active and inactive are the calls of the source. No cut-off for these calls is given here.
# Experiments:
# Mus musculus [1] = test: Protection against CTX-induced myelosuppression in BALB/c mouse assessed as effect on PLT level at 5 mg/kg, ip administered daily for 7 days starting from 3 days post-CTX challenge measured 24 hrs post-last dose (reference value: 628.5 +/- 66.09 10^9/L); assay type: functional
# Mus musculus [2] = test: Protection against CTX-induced myelosuppression in BALB/c mouse assessed as effect on HGB level at 10 mg/kg, ip administered daily for 7 days starting from 3 days post-CTX challenge measured 24 hrs post-last dose (reference value: 113.2 +/- 6.66 g/L); assay type: functional
# Mus musculus [3] = test: Protection against CTX-induced myelosuppression in BALB/c mouse assessed as effect on HGB level at 5 mg/kg, ip administered daily for 7 days starting from 3 days post-CTX challenge measured 24 hrs post-last dose (reference value: 113.2 +/- 6.66 g/L); assay type: functional
# Mus musculus [4] = test: Protection against CTX-induced myelosuppression in BALB/c mouse assessed as effect on RBC level at 10 mg/kg, ip administered daily for 7 days starting from 3 days post-CTX challenge measured 24 hrs post-last dose (reference value: 8.63 +/- 0.68 10^12/L); assay type: functional
# Mus musculus [5] = test: Protection against CTX-induced myelosuppression in BALB/c mouse assessed as effect on RBC level at 5 mg/kg, ip administered daily for 7 days starting from 3 days post-CTX challenge measured 24 hrs post-last dose (reference value: 8.63 +/- 0.68 10^12/L); assay type: functional
# Mus musculus [6] = test: Protection against CTX-induced myelosuppression in BALB/c mouse assessed as effect on WBC level at 5 mg/kg, ip administered daily for 7 days starting from 3 days post-CTX challenge measured 24 hrs post-last dose (reference value: 10.34 +/- 1.4 10^9/L); assay type: functional
# Mus musculus [7] = test: Protection against CTX-induced myelosuppression in BALB/c mouse assessed as effect on WBC level at 10 mg/kg, ip administered daily for 7 days starting from 3 days post-CTX challenge measured 24 hrs post-last dose (reference value: 10.34 +/- 1.4 10^9/L); assay type: functional
# Mus musculus [8] = test: Protection against CTX-induced myelosuppression in BALB/c mouse assessed as effect on PLT level at 10 mg/kg, ip administered daily for 7 days starting from 3 days post-CTX challenge measured 24 hrs post-last dose (reference value: 628.5 +/- 66.09 10^9/L); assay type: functional
# Mus musculus [9] = test: Protection against CTX-induced myelosuppression in BALB/c mouse assessed as improvement in hematopoiesis by measuring increase in bone marrow nucleated cells at 5 to 10 mg/kg, ip administered daily for 7 days starting from 3 days post-CTX challenge measured 24 hrs post-last dose by inverted microscopic method; assay type: functional, organism-based
# Mus musculus [10] = test: Protection against CTX-induced myelosuppression in BALB/c mouse assessed as improvement in immunity by measuring spleen index at 5 mg/kg, ip administered daily for 7 days starting from 3 days post-CTX challenge measured 24 hrs post-last dose (reference value: 8.94 +/- […]); assay type: functional
# Mus musculus [11] = test: Protection against CTX-induced myelosuppression in BALB/c mouse assessed as improvement in immunity by measuring spleen index at 10 mg/kg, ip administered daily for 7 days starting from 3 days post-CTX challenge measured 24 hrs post-last dose (reference value: 8.94 +/- […]); assay type: functional
# Mus musculus [12] = test: Protection against CTX-induced myelosuppression in BALB/c mouse assessed as improvement in hematopoiesis by measuring increase in colonies of granulocyte macrophage at 5 to 10 mg/kg, ip administered daily for 7 days starting from 3 days post-CTX challenge measured 24 hrs post-last dose by inverted microscopic method; assay type: functional, organism-based
# Mus musculus [13] = test: Protection against CTX-induced myelosuppression in BALB/c mouse assessed as improvement in hematopoiesis by measuring increase in colonies of erythroid at 5 to 10 mg/kg, ip administered daily for 7 days starting from 3 days post-CTX challenge measured 24 hrs post-last dose by inverted microscopic method; assay type: functional, organism-based
# Mus musculus [14] = test: Protection against CTX-induced myelosuppression in BALB/c mouse assessed as improvement in hematopoiesis by measuring increase in colonies of megakaryocytes at 5 to 10 mg/kg, ip administered daily for 7 days starting from 3 days post-CTX challenge measured 24 hrs post-last dose by inverted microscopic method; assay type: functional, organism-based
# Mus musculus [15] = test: Protection against CTX-induced myelosuppression in BALB/c mouse assessed as improvement in hematopoiesis by measuring increase in burst forming units of erythroid at 5 to 10 mg/kg, ip administered daily for 7 days starting from 3 days post-CTX challenge measured 24 hrs post-last dose by inverted microscopic method; assay type: functional, organism-based
# Mus musculus [16] = test: Protection against CTX-induced myelosuppression in BALB/c mouse assessed as improvement in hematopoiesis by decrease in granulocyte macrophage-colony stimulating factor level at 5 to 10 mg/kg, ip administered daily for 7 days starting from 3 days post-CTX challenge measured 24 hrs post-last dose by ELISA; assay type: functional, organism-based
# Mus musculus [17] = test: Protection against CTX-induced myelosuppression in BALB/c mouse assessed as improvement in hematopoiesis by decrease in erythropoietin level at 5 to 10 mg/kg, ip administered daily for 7 days starting from 3 days post-CTX challenge measured 24 hrs post-last dose by ELISA; assay type: functional, organism-based
# Mus musculus [18] = test: Protection against CTX-induced myelosuppression in BALB/c mouse assessed as improvement in hematopoiesis by decrease in thrombopoietin level at 5 to 10 mg/kg, ip administered daily for 7 days starting from 3 days post-CTX challenge measured 24 hrs post-last dose by ELISA; assay type: functional, organism-based
# Mus musculus [19] = test: Protection against CTX-induced myelosuppression in BALB/c mouse assessed as change in hematopoietic progenitor cell cycle distribution by decrease in accumulation at G0/G1-phase at 5 to 10 mg/kg, ip administered daily for 7 days starting from 3 days post-CTX challenge measured 24 hrs post-last dose by propidium iodide staining based flow cytometry; assay type: functional, organism-based
# Mus musculus [20] = test: Protection against CTX-induced myelosuppression in BALB/c mouse assessed as change in hematopoietic progenitor cell cycle distribution by increase in accumulation at S-phase at 5 to 10 mg/kg, ip administered daily for 7 days starting from 3 days post-CTX challenge measured 24 hrs post-last dose by propidium iodide staining based flow cytometry; assay type: functional, organism-based
# Mus musculus [21] = test: Protection against CTX-induced myelosuppression in BALB/c mouse assessed as change in hematopoietic progenitor cell cycle distribution by increase in accumulation at G2/M-phase at 5 to 10 mg/kg, ip administered daily for 7 days starting from 3 days post-CTX challenge measured 24 hrs post-last dose by propidium iodide staining based flow cytometry; assay type: functional, organism-based
# Mus musculus [22] = test: Protection against CTX-induced myelosuppression in BALB/c mouse assessed as upregulation of MEK expression at 5 to 10 mg/kg, ip administered daily for 7 days starting from 3 days post-CTX challenge measured 24 hrs post-last dose by Western blot analysis; assay type: functional, organism-based
# Mus musculus [23] = test: Protection against CTX-induced myelosuppression in BALB/c mouse assessed as upregulation of phosphorylated ERK expression at 5 to 10 mg/kg, ip administered daily for 7 days starting from 3 days post-CTX challenge measured 24 hrs post-last dose by Western blot analysis; assay type: functional, organism-based
# [24] = Toxicity in BALB/c mouse assessed as behavioral changes at 5 to 10 mg/kg, ip administered daily for 7 days measured during compound dosing; assay type: organism-based; conditions: in vivo, 168 h
# [25] = Toxicity in BALB/c mouse assessed as change in appetite at 5 to 10 mg/kg, ip administered daily for 7 days measured during compound dosing; assay type: organism-based; conditions: in vivo, 168 h
# [26] = Toxicity in BALB/c mouse assessed as change in body temperature at 5 to 10 mg/kg, ip administered daily for 7 days measured during compound dosing; assay type: organism-based; conditions: in vivo, 168 h
# [27] = Toxicity in BALB/c mouse assessed as effect on appearance of shiny hair at 5 to 10 mg/kg, ip administered daily for 7 days measured during compound dosing; assay type: organism-based; conditions: in vivo, 168 h
# Mus musculus [28] = test: Protection against CTX-induced toxicity in BALB/c mouse assessed as restoration of normal food intake at 5 to 10 mg/kg, ip administered daily for 7 days starting from 3 days post-CTX challenge and measured during compound dosing; assay type: functional, organism-based
# Mus musculus [29] = test: Protection against CTX-induced toxicity in BALB/c mouse assessed as restoration of normal body weight at 5 to 10 mg/kg, ip administered daily for 7 days starting from 3 days post-CTX challenge and measured during compound dosing; assay type: functional, organism-based
# Mus musculus [30] = test: Protection against CTX-induced toxicity in BALB/c mouse assessed as loss of depilation at 5 to 10 mg/kg, ip administered daily for 7 days starting from 3 days post-CTX challenge and measured during compound dosing; assay type: functional, organism-based
# Mus musculus [31] = test: Protection against CTX-induced toxicity in BALB/c mouse assessed as loss of cool skin at 5 to 10 mg/kg, ip administered daily for 7 days starting from 3 days post-CTX challenge and measured during compound dosing; assay type: functional, organism-based
# Mus musculus [32] = test: Protection against CTX-induced toxicity in BALB/c mouse assessed as loss of hematuria at 5 to 10 mg/kg, ip administered daily for 7 days starting from 3 days post-CTX challenge and measured during compound dosing; assay type: functional, organism-based
# Mus musculus [33] = test: Protection against CTX-induced toxicity in BALB/c mouse assessed as loss of diarrhea at 5 to 10 mg/kg, ip administered daily for 7 days starting from 3 days post-CTX challenge and measured during compound dosing; assay type: functional, organism-based
smiles,measurement,setting,value
COc1ccc(C[C@H]2COC(=O)[C@@H]2Cc2ccc(OC(=O)[C@@H](N)C(C)C)c(OC)c2)cc1OC,Activity,Mus musculus [1],796 ×10⁹ /L
same,Activity,Mus musculus [2],125.5 g/L
same,Activity,Mus musculus [3],120 g/L
same,Activity,Mus musculus [4],9.24 ×10¹² /L
same,Activity,Mus musculus [5],8.8 ×10¹² /L
same,Activity,Mus musculus [6],9.29 ×10⁹ /L
same,Activity,Mus musculus [7],8.65 ×10⁹ /L
same,Activity,Mus musculus [8],848 ×10⁹ /L
same,Activity,Mus musculus [9],Active
same,Activity index,Mus musculus [10],8.66 mg/g
same,Activity index,Mus musculus [11],8.47 mg/g
same,Activity,Mus musculus [12],Active
same,Activity,Mus musculus [13],Active
same,Activity,Mus musculus [14],Active
same,Activity,Mus musculus [15],Active
same,Activity,Mus musculus [16],Active
same,Activity,Mus musculus [17],Active
same,Activity,Mus musculus [18],Active
same,Activity,Mus musculus [19],Active
same,Activity,Mus musculus [20],Active
same,Activity,Mus musculus [21],Active
same,Activity,Mus musculus [22],Active
same,Activity,Mus musculus [23],Active
same,Activity,[24],Non-Toxic
same,Activity,[25],Non-Toxic
same,Activity,[26],Non-Toxic
same,Activity,[27],Non-Toxic
same,Activity,Mus musculus [28],Active
same,Activity,Mus musculus [29],Active
same,Activity,Mus musculus [30],Active
same,Activity,Mus musculus [31],Active
same,Activity,Mus musculus [32],Active
same,Activity,Mus musculus [33],Active
